Test results reported in patent US8518944B2, “Compounds as casein kinase inhibitors” (Pfizer Inc., priority 2009, dated 2013).
Structures can show the parent of a compound that is named as a salt.

Columns and labels:
[1] = target: CK1ε wild type enzyme (Homo sapiens, UniProt P49674); experiment: CK1ε kinase assay (Kinase-Glo luminescence); assay type: biochemical; settings: ATP 10 μM, CK1ε wild type enzyme 2.5 nM, peptide substrate 42 μM, 25° C., 70 minutes; values marked * are geometric mean of 5-16 determinations; read-out: CKIε IC50 (nM), geometric mean of 2-4 determinations
Description: The CK1ε kinase assay was performed in a standard buffer containing ATP at 10 μM, CK1ε wild type enzyme at 2.5 nM, and 42 μM concentration of the peptide substrate PLSRTLpSVASLPGL (Flotow et al., 1990). The reaction was incubated at 25° C. for 70 minutes. Enzyme inhibition was measured in the presence of 1 μL of the CK1ε inhibitor, or 4% DMSO. Detection was carried out as described for the Kinase-Glo Assay (Promega). Luminescent output was measured on the PerkinElmer EnVision plate reader (PerkinElmer, Waltham, Mass.).

[2] = target: CK1δ (Homo sapiens, UniProt P48730); experiment: CK1δ kinase assay (Kinase-Glo luminescence); assay type: biochemical; settings: ATP 10 μM, CK1δ enzyme 2 nM, peptide substrate 42 μM, 25° C., 85 minutes; values marked * are geometric mean of 5-16 determinations; read-out: CKIδ IC50 (nM), geometric mean of 2-4 determinations
Description: The CK1δ kinase assay was performed in a standard buffer containing ATP at 10 μM, CK1δ enzyme at 2 nM, and the peptide substrate PLSRTLpSVASLPGL at 42 μM. The reaction was incubated at 25° C. for 85 minutes. Enzyme inhibition was performed in the presence of either 1 μL of CK1δ inhibitor, or 4% DMSO. Detection of luminescent output on a PerkinElmer EnVision plate reader (PerkinElmer, Waltham, Mass.) was performed as described for the Kinase-Glo Assay (Promega).

Chain of CK1δ (P48730 whole entry): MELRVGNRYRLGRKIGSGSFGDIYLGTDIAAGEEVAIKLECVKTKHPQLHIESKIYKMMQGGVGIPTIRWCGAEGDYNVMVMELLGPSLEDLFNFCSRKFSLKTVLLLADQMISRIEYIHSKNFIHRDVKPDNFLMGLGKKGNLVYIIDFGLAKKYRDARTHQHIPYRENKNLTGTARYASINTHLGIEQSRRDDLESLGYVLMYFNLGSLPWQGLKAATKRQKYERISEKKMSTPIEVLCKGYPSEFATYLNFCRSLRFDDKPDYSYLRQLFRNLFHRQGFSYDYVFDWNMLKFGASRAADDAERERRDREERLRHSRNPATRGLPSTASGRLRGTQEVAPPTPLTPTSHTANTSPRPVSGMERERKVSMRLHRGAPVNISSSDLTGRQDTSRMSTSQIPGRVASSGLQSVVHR
Chain of CK1ε wild type enzyme (P49674 whole entry): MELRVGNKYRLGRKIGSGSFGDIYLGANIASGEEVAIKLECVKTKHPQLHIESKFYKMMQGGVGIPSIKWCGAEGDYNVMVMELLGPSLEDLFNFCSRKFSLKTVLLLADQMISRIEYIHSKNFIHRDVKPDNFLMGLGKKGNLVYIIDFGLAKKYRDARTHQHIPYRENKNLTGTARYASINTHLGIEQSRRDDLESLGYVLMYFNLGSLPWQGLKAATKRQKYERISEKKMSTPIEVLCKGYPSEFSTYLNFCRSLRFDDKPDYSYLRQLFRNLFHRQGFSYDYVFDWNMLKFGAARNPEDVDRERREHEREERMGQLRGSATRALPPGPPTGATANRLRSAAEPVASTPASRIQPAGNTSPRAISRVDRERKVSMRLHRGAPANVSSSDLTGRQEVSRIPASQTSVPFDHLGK

| Structure (SMILES) | IC50 [1] [nM] | IC50 [2] [nM] |
| --- | --- | --- |
| C[C@H](c1ccon1)N1CCC(n2cnc(-c3ccc(F)cc3)c2-c2ccncn2)CC1 (single isomer, unassigned) [Example 9] | 1360 | 281 |
| Nc1nccc(-c2c(-c3ccc(F)cc3)ncn2C2CCN(Cc3ncccn3)CC2)n1 [Example 3, 4-{4-(4-Fluorophenyl)-1-[1-(pyrimidin-2-ylmethyl)piperidin-4-yl]-1H-imidazol-5-yl}pyrimidin-2-amine] | 116 | 27.8 |
| Nc1nccc(-c2c(-c3ccc(F)cc3)ncn2C2CCN(Cc3ccon3)CC2)n1 [Example 4, 4-{4-(4-Fluorophenyl)-1-[1-(isoxazol-3-ylmethyl)piperidin-4-yl]-1H-imidazol-5-yl}pyrimidin-2-amine] | 18.9 | < 4.17 |
| CNc1nccc(-c2c(-c3ccc(F)cc3)ncn2C2CCN(Cc3ccon3)CC2)n1 [Example 5, 4-{4-(4-Fluorophenyl)-1-[1-(isoxazol-3-ylmethyl)piperidin-4-yl]-1H-imidazol-5-yl}-N-methylpyrimidin-2-amine] | 32.3 | 6.86 |
| Nc1nccc(-c2c(-c3ccc(F)cc3)ncn2C2CCN(Cc3ccon3)C2)n1 (stereo not shown) [Example 7, 4-{4-(4-Fluorophenyl)-1-[1-(isoxazol-3-ylmethyl)pyrrolidin-3-yl]-1H-imidazol-5-yl}pyrimidin-2-amine] | 193 | 67.8 |
| Fc1ccc(-c2ncn(C3CCN(Cc4ccon4)C3)c2-c2ccncn2)cc1 (stereo not shown) [Example 8, 4-{4-(4-Fluorophenyl)-1-[1-(isoxazol-3-ylmethyl)pyrrolidin-3-yl]-1H-imidazol-5-yl}pyrimidine] | 617 | 211 |
| CNc1nccc(-c2c(-c3ccccc3)ncn2C2CCN(Cc3ncccn3)CC2)n1 [Example 12, N-Methyl-4-{4-phenyl-1-[1-(pyrimidin-2-ylmethyl)piperidin-4-yl]-1H-imidazol-5-yl}pyrimidin-2-amine] | 660 | 191 |
| CNc1nccc(-c2c(-c3ccccc3)ncn2C2CCN(Cc3ccon3)CC2)n1 [Example 15, 4-{1-[1-(isoxazol-3-ylmethyl)piperidin-4-yl]-4-phenyl-1H-imidazol-5-yl}-N-methylpyrimidin-2-amine, hydrochloride salt] | 76.1 | 18.6 |
| c1ccc(-c2ncn(C3CCN(Cc4ccon4)CC3)c2-c2ccncn2)cc1 [Example 16, 4-{1-[1-(isoxazol-3-ylmethyl)piperidin-4-yl]-4-phenyl-1H-imidazol-5-yl}pyrimidine] | 327 | 42.8 |
| Nc1nccc(-c2c(-c3ccc(F)cc3)ncn2C2CCN(Cc3ccc(C(F)(F)F)nc3)CC2)n1 [Example 18, 4-[4-(4-fluorophenyl)-1-(1-{[6-(trifluoromethyl)pyridin-3-yl]methyl}piperidin-4-yl)-1H-imidazol-5-yl]pyrimidin-2-amine, trifluoroacetate salt] | 394 | 80.7 |
| Nc1nccc(-c2c(-c3ccc(F)cc3)ncn2C2CCN(Cc3cncs3)CC2)n1 [Example 19, 4-{4-(4-fluorophenyl)-1-[1-(1,3-thiazol-5-ylmethyl)piperidin-4-yl]-1H-imidazol-5-yl}pyrimidin-2-amine, trifluoroacetate salt] | 99.9 | 26.8 |
| Cn1nccc1CN1CCC(n2cnc(-c3ccc(F)cc3)c2-c2ccnc(N)n2)CC1 [Example 20, 4-[4-(4-fluorophenyl)-1-{1-[(1-methyl-1H-pyrazol-5-yl)methyl]piperidin-4-yl}-1H-imidazol-5-yl]pyrimidin-2-amine, trifluoroacetate salt] | 244 | 42.8 |
| COc1ncccc1CN1CCC(n2cnc(-c3ccc(F)cc3)c2-c2ccnc(N)n2)CC1 [Example 26, 4-[4-(4-fluorophenyl)-1-{1-[(2-methoxypyridin-3-yl)methyl]piperidin-4-yl}-1H-imidazol-5-yl]pyrimidin-2-amine, trifluoroacetate salt] | 238 | 51.9 |
| Cc1ncc(CN2CCC(n3cnc(-c4ccc(F)cc4)c3-c3ccnc(N)n3)CC2)cn1 [Example 27, 4-[4-(4-fluorophenyl)-1-{1-[(2-methylpyrimidin-5-yl)methyl]piperidin-4-yl}-1H-imidazol-5-yl]pyrimidin-2-amine, trifluoroacetate salt] | 83.2 | 17.6 |
| Nc1nccc(-c2c(-c3ccc(F)cc3)ncn2C2CCN(Cc3ccnc(C4CC4)n3)CC2)n1 [Example 28, 4-[1-{1-[(2-cyclopropylpyrimidin-4-yl)methyl]piperidin-4-yl}-4-(4-fluorophenyl)-1H-imidazol-5-yl]pyrimidin-2-amine, trifluoroacetate salt] | 351 | 54.9 |
| Cc1cc(CN2CCC(n3cnc(-c4ccc(F)cc4)c3-c3ccncn3)CC2)no1 [Example 29, 4-[4-(4-fluorophenyl)-1-{1-[(5-methylisoxazol-3-yl)methyl]piperidin-4-yl}-1H-imidazol-5-yl]pyrimidine] | 268 | 38.8 |

Next, values leading:

| IC50 [1] [nM] | IC50 [2] [nM] | Structure (SMILES) |
| --- | --- | --- |
| 277 | 64.6 | C[C@@H](c1ccon1)N1CCC(n2cnc(-c3ccc(F)cc3)c2-c2ccncn2)CC1 (single isomer, unassigned) [Example 10] |
| 536 | 163 | Nc1nccc(-c2c(-c3ccc(F)cc3)ncn2C2CN(Cc3ncccn3)C2)n1 [Example 1, 4-{4-(4-Fluorophenyl)-1-[1-(pyrimidin-2-ylmethyl)azetidin-3-yl]-1H-imidazol-5-yl}pyrimidin-2-amine] |
| 67.4 | 16.7 | CNc1nccc(-c2c(-c3ccc(F)cc3)ncn2C2CCN(C(C)c3ccon3)CC2)n1 (stereo not shown) [Example 2, 4-{4-(4-Fluorophenyl)-1-[1-(1-isoxazol-3-ylethyl)piperidin-4-yl]-1H-imidazol-5-yl}-N-methylpyrimidin-2-amine] |
| 126 | 24 | Fc1ccc(-c2ncn(C3CCN(Cc4ccon4)CC3)c2-c2ccncn2)cc1 [Example 6, 4-{4-(4-Fluorophenyl)-1-[1-(isoxazol-3-ylmethyl)piperidin-4-yl]-1H-imidazol-5-yl}pyrimidine, hydrochloride salt] |
| > 3660 | 790 | c1ccc(-c2ncn(C3CCN(Cc4ncccn4)CC3)c2-c2ccncn2)cc1 [Example 11, 2-{[4-(4-Phenyl-5-pyrimidin-4-yl-1H-imidazol-1-yl)piperidin-1-yl]methyl}pyrimidine] |
| 40.9 | 8.22 | Nc1nccc(-c2c(-c3ccccc3)ncn2C2CCN(Cc3ccon3)CC2)n1 [Example 13, 4-{1-[1-(Isoxazol-3-ylmethyl)piperidin-4-yl]-4-phenyl-1H-imidazol-5-yl}pyrimidin-2-amine, hydrochloride salt] |
| 829 | 140 | Cc1nc(-c2ccc(F)cc2)c(-c2ccncn2)n1C1CCN(Cc2ccon2)CC1 [Example 14, 4-{4-(4-Fluorophenyl)-1-[1-(isoxazol-3-ylmethyl)piperidin-4-yl]-2-methyl-1H-imidazol-5-yl}pyrimidine] |
| 144 | 32.1 | Cc1nc2ccccc2nc1CN1CCC(n2cnc(-c3ccc(F)cc3)c2-c2ccnc(N)n2)CC1 [Example 17, 4-[4-(4-fIuorophenyl)-1-{1-[(3-methylquinoxalin-2-yl)methyl]piperidin-4-yl}-1H-imidazol-5-yl]pyrimidin-2-amine, trifluoroacetate salt] |
| 59.8 | 13 | Cc1cc(CN2CCC(n3cnc(-c4ccc(F)cc4)c3-c3ccnc(N)n3)CC2)ccn1 [Example 21, 4-[4-(4-fluorophenyl)-1-{1-[(2-methylpyridin-4-yl)methyl]piperidin-4-yl}-1H-imidazol-5-yl]pyrimidin-2-amine, trifluoroacetate salt] |
| 482 | 83.6 | COc1ccc(CN2CCC(n3cnc(-c4ccc(F)cc4)c3-c3ccnc(N)n3)CC2)cn1 [Example 22, 4-[4-(4-fluorophenyl)-1-{1-[(6-methoxypyridin-3-yl)methyl]piperidin-4-yl}-1H-imidazol-5-yl]pyrimidin-2-amine, trifluoroacetate salt] |
| 34.8 | 8.51 | Nc1nccc(-c2c(-c3ccc(F)cc3)ncn2C2CCN(Cc3ccnnc3)CC2)n1 [Example 23, 4-{4-(4-fluorophenyl)-1-[1-(pyridazin-4-ylmethyl)piperidin-4-yl]-1H-imidazol-5-yl}pyrimidin-2-amine, trifluoroacetate salt] |
| 382 | 83.7 | CCc1csc(CN2CCC(n3cnc(-c4ccc(F)cc4)c3-c3ccnc(N)n3)CC2)n1 [Example 24, 4-[1-{1-[(4-ethyl-1,3-thiazol-2-yl)methyl]piperidin-4-yl}-4-(4-fluorophenyl)-1H-imidazol-5-yl]pyrimidin-2-amine, trifluoroacetate salt] |
| 393 | 84.3 | COc1cc(CN2CCC(n3cnc(-c4ccc(F)cc4)c3-c3ccnc(N)n3)CC2)ccn1 [Example 25, 4-[4-(4-fluorophenyl)-1-{1-[(2-methoxypyridin-4-yl)methyl]piperidin-4-yl}-1H-imidazol-5-yl]pyrimidin-2-amine, trifluoroacetate salt] |
